Consider six compounds from ChEMBL document CHEMBL4765228, “Indole-like Trk receptor antagonists” (Eur J Med Chem, 2016).

Test [1] has as its target Rho-associated protein kinase 2 (Homo sapiens) (UniProt O75116). Nature of the test: Inhibition of human ROCK2 assessed as residual activity at 0.1 uM relative to control.
For test [2], the species on record is Homo sapiens. Nature of the test: Inhibition of human PKA assessed as residual activity at 0.1 uM relative to control.
The target of test [3] is Dual specificity tyrosine-phosphorylation-regulated kinase 1A (Homo sapiens) (UniProt Q13627). Nature of the test: Inhibition of human DYRK1A assessed as residual activity at 1 uM relative to control.
Test [4] has as its target Ephrin type-A receptor 2 (Homo sapiens) (UniProt P29317). Nature of the test: Inhibition of human EPHA2 assessed as residual activity at 1 uM relative to control.
Test [5] addresses T1, Serine/threonine-protein kinase Sgk1 (Homo sapiens) (UniProt O00141).
T1 sequence (whole entry): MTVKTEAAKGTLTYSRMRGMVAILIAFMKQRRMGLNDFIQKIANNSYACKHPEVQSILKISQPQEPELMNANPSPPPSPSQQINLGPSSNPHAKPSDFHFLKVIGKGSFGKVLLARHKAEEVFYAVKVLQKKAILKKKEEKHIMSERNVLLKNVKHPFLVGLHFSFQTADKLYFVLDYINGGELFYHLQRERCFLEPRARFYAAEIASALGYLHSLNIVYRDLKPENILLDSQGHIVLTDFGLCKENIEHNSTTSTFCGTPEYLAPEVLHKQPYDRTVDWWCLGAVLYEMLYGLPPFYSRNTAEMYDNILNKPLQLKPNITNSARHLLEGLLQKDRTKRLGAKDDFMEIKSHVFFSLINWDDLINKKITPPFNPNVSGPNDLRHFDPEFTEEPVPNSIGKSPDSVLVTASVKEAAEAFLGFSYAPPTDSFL
Nature of the test: Inhibition of human SGK1 assessed as residual activity at 0.1 uM relative to control.

Test [6] concerns the target T2, Serine/threonine-protein kinase D1 (Homo sapiens) (UniProt Q15139).
T2 sequence (whole entry): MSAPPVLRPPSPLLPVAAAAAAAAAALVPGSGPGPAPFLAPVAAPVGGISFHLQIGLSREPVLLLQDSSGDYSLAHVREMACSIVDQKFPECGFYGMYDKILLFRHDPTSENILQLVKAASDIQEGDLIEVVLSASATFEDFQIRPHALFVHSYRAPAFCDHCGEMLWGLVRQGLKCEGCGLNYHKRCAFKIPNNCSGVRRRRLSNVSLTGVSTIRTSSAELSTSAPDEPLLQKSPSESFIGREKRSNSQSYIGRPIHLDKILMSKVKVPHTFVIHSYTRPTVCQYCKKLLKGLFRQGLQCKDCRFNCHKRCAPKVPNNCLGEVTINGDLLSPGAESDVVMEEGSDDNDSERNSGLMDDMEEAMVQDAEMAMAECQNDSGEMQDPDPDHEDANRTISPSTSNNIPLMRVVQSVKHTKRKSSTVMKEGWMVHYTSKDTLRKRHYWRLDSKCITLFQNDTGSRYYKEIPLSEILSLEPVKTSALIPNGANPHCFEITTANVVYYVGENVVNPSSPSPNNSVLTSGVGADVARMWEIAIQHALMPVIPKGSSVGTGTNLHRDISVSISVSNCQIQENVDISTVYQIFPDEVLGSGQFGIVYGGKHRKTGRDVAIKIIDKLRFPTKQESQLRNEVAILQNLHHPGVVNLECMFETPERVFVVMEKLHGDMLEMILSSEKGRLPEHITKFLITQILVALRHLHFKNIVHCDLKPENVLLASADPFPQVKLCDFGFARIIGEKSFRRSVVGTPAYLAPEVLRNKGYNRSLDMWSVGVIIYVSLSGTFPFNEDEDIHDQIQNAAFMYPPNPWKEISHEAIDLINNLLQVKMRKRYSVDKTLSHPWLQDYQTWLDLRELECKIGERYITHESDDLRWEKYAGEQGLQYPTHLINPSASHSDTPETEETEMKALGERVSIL
Nature of the test: Inhibition of human PKCmu assessed as residual activity at 1 uM relative to control.

For test [7], the target named is Glycogen synthase kinase-3 beta (Homo sapiens) (UniProt P49841). Nature of the test: Inhibition of human GSK3-beta assessed as residual activity at 0.1 uM relative to control.
In test [8] the target is T3, Serine/threonine-protein kinase 3 (Homo sapiens) (UniProt Q13188).
T3 sequence (whole entry): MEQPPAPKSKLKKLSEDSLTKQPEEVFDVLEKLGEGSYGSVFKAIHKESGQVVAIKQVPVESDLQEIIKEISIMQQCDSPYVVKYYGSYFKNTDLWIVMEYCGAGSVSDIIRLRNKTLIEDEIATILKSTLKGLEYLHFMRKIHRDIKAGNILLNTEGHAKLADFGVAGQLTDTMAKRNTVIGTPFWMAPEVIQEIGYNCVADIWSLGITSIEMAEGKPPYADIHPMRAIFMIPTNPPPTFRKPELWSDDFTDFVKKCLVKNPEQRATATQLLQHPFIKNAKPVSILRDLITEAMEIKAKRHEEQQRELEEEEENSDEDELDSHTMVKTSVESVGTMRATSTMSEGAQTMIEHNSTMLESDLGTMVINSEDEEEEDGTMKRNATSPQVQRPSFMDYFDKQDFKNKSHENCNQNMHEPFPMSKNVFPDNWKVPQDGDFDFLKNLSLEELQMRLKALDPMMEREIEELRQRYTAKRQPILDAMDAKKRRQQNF
Nature of the test: Inhibition of human MST2 assessed as residual activity at 0.1 uM relative to control.

The target in test [9] is Protein kinase C alpha type (Homo sapiens) (UniProt P17252). Nature of the test: Inhibition of human PKCalpha assessed as residual activity at 0.1 uM relative to control.
The target of test [10] is T1, Serine/threonine-protein kinase Sgk1 (Homo sapiens). Nature of the test: Inhibition of human SGK1 assessed as residual activity at 1 uM relative to control.
In test [11] the target is SRSF protein kinase 1 (Homo sapiens) (UniProt Q96SB4). Nature of the test: Inhibition of human SRPK1 assessed as residual activity at 0.1 uM relative to control.
In test [12] the target is Homeodomain-interacting protein kinase 2 (Homo sapiens) (UniProt Q9H2X6). Nature of the test: Inhibition of human HIPK2 assessed as residual activity at 0.1 uM relative to control.
Test [13] deals with Insulin-like growth factor 1 receptor (Homo sapiens) (UniProt P08069). Nature of the test: Inhibition of human IGF1R assessed as residual activity at 1 uM relative to control.
Insulin-like growth factor 1 receptor (Homo sapiens), sequence (P08069 31-736 limits assumed): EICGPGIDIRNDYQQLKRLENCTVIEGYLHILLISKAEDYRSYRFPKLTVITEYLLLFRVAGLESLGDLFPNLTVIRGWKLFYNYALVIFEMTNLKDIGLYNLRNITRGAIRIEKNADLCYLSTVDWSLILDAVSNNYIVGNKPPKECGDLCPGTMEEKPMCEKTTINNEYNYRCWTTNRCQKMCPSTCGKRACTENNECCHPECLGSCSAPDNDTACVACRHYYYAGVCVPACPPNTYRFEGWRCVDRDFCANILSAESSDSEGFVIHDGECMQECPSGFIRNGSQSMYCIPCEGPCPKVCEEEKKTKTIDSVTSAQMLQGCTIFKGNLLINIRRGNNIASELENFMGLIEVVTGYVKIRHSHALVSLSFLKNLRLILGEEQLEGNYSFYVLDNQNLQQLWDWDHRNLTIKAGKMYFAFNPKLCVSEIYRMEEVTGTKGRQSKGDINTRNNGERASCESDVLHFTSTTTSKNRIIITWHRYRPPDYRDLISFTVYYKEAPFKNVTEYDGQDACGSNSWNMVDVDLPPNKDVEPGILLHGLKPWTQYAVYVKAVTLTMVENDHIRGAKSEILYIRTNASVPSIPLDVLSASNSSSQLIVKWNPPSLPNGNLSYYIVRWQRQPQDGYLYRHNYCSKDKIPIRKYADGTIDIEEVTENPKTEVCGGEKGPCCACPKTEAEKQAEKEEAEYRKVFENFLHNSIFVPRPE
Insulin-like growth factor 1 receptor (Homo sapiens), sequence (P08069 741-1367 limits assumed): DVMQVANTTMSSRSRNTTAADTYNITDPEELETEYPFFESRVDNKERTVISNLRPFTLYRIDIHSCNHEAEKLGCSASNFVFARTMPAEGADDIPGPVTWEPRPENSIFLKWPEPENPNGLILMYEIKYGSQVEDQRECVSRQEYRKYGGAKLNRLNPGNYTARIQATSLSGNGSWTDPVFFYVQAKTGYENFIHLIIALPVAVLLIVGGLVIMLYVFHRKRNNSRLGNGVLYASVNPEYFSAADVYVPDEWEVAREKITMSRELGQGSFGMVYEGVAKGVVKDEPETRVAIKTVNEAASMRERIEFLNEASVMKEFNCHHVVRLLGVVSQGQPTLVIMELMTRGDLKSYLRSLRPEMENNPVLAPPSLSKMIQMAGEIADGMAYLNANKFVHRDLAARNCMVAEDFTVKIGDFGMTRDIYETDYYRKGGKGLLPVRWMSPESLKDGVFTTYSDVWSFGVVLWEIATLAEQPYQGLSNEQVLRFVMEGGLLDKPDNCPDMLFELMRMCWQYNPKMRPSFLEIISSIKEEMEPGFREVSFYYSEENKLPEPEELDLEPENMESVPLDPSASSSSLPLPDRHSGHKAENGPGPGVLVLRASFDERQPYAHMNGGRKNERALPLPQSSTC
Test [14] concerns the target 3-phosphoinositide-dependent protein kinase 1 (Homo sapiens) (UniProt O15530). Nature of the test: Inhibition of human PDK1 assessed as residual activity at 0.1 uM relative to control.
In test [15] the target is Tyrosine-protein kinase JAK2 (Homo sapiens) (UniProt O60674). Nature of the test: Inhibition of human JAK2 assessed as residual activity at 1 uM relative to control.
Test [16] deals with RAC-alpha serine/threonine-protein kinase (Homo sapiens) (UniProt P31749). Nature of the test: Inhibition of human AKT1 (104 to 408 residues) assessed as residual activity at 0.1 uM relative to control.

Rho-associated protein kinase 2 (Homo sapiens), sequence (O75116 whole entry, looked up): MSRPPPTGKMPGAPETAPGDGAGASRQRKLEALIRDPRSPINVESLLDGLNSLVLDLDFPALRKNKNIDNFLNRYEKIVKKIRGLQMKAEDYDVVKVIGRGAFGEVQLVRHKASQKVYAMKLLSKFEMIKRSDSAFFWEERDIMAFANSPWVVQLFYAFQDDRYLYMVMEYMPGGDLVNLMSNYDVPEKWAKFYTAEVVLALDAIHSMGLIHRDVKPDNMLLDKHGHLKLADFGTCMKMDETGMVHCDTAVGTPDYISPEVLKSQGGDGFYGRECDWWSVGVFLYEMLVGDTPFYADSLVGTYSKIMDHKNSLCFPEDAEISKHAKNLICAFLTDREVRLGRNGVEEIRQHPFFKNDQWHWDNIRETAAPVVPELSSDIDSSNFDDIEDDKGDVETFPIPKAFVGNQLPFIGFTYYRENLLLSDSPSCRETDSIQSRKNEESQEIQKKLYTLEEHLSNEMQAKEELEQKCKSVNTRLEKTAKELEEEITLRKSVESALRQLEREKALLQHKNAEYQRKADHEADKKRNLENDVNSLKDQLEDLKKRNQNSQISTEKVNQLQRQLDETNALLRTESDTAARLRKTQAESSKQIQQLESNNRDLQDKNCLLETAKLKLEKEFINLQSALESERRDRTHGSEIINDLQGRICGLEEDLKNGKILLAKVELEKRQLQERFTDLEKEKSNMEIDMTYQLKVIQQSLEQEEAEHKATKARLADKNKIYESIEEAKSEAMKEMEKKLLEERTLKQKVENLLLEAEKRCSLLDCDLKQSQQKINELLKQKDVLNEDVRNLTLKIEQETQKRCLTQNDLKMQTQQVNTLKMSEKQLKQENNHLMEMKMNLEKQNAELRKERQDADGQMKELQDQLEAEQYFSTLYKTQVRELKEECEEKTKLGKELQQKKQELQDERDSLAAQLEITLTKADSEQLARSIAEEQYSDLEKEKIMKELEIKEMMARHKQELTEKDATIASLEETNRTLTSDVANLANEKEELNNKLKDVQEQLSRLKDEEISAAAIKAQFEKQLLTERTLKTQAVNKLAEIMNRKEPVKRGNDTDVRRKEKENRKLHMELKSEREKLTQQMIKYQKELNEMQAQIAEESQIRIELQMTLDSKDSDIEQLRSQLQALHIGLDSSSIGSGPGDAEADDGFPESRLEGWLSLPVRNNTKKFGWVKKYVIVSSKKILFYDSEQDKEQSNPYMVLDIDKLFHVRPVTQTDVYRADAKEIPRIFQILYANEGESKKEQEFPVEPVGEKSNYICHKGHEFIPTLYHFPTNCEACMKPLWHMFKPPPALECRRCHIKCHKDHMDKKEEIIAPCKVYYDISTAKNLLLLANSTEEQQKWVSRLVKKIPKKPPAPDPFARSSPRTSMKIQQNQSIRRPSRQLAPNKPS
3-phosphoinositide-dependent protein kinase 1 (Homo sapiens), sequence (O15530 whole entry, looked up): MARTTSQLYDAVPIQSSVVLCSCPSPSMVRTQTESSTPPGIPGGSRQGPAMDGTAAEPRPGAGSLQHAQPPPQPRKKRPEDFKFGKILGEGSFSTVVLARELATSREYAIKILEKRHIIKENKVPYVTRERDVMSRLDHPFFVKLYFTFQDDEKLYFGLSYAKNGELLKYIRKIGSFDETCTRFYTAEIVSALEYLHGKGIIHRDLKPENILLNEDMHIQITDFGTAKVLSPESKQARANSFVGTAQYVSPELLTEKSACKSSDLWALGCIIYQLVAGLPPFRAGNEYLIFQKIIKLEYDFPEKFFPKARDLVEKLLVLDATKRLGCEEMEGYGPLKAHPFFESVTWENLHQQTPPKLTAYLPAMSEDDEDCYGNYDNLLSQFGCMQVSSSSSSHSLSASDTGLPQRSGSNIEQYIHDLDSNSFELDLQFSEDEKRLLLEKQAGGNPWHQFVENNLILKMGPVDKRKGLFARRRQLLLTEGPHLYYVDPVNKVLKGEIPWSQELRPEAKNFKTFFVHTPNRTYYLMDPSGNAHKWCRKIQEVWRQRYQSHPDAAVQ
Ephrin type-A receptor 2 (Homo sapiens), sequence (P29317 whole entry): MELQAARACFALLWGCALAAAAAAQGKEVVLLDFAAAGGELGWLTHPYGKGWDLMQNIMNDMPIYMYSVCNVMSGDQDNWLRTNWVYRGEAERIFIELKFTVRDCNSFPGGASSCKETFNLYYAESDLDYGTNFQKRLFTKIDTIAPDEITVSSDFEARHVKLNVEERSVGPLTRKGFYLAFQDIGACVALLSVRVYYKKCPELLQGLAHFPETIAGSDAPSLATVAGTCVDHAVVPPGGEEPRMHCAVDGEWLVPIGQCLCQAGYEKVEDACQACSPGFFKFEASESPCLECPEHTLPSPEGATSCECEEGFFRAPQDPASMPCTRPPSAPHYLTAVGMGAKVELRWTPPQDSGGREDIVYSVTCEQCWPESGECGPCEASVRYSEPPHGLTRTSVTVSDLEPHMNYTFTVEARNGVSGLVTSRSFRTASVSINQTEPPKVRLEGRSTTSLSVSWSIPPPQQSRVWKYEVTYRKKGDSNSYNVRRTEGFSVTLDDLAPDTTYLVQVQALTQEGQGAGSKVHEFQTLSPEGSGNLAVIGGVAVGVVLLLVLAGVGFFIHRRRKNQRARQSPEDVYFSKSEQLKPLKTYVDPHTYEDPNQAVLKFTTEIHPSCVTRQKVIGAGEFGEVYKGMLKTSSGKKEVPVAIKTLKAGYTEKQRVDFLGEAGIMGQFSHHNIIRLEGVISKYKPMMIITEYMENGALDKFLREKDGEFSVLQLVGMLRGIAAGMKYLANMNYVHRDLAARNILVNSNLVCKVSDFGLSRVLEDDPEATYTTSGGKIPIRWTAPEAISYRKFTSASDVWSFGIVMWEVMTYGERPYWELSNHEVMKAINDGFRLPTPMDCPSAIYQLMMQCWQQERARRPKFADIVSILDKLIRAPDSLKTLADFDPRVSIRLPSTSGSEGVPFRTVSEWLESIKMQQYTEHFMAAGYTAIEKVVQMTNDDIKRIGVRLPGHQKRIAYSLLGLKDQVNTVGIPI

For the compound `CNS(=O)(=O)c1ccc2c(c1)/C(=C/c1cn(C)c3ccc(OC)cc13)C(=O)N2`, the Activity in test [1] stood at 94%; in [2], 91%; in test [3], 95%; in test [4], 84%; in test [5], 94%; in [6] it was 93%. In addition, the Activity turned out to be 90% in [7]; 95% in test [8]; 101% in test [9]; 81% in [10]; 105% in test [11]; 106% in test [12]. The Activity is 60% in test [13], 92% in test [14], 87% in test [15] and 93% in [16].

With `Cn1cc(/C=C2\C(=O)Nc3ccc(S(N)(=O)=O)cc32)c2ccccc21`, the Activity in test [1] turned out to be 76%; in [2] it was 94%; in test [3] it was 114%; in [4], 90%; in [5], 81%; in [6], 91%. Further, the Activity in test [7] was determined as 104%; in test [8], 91%; in test [9], 106%; in test [10], 55%; in test [11] it was 116%; in [12], 112%. Besides, the Activity in [13] was 107%; in [14], 90%; in test [15], 67%; in [16] it was 92%.

Consider `COc1ccc2c(c1)c(/C=C1\C(=O)Nc3ccc(S(N)(=O)=O)cc31)cn2C`, for which the Activity in [1] is 99%; in test [2], 91%; in [3] it was 99%; in test [4], 89%; in test [5] it was 80%; in test [6], 91%. The Activity in test [7] stood at 93%; in test [8] it was 86%; in test [9], 91%; in test [10], 75%; in test [11] it was 106%; in test [12], 108%. The Activity in test [13] was found to be 100%; in [14] it was 93%; in test [15], 86%; in [16], 92%.

On to `CN(C)S(=O)(=O)c1ccc2c(c1)/C(=C/c1cn(C)c3ccc(O)cc13)C(=O)N2`, for which the Activity in [1] is 79%; in test [2] it was 94%; in [3], 101%; in test [4], 98%; in [5], 87%; in [6], 89%. Further, the Activity in test [7] was 99%; in test [8] it was 98%; in [9], 96%; in test [10] it was 81%; in test [11], 109%; in test [12] it was 120%. For the same compound, the Activity in test [13] amounted to 95%; in test [14], 94%; in test [15], 55%; in test [16], 105%.

Turning to `COc1ccc2c(c1)c(/C=C1\C(=O)Nc3ccc(S(=O)(=O)N(C)C)cc31)cn2C`, the Activity in test [1] came out at 92%; in test [2], 91%; in [3] it was 94%; in test [4] it was 89%; in test [5] it was 90%; in test [6] it was 92%. For the same compound, the Activity amounted to 98% in test [7]; 101% in [8]; 93% in [9]; 80% in test [10]; 111% in test [11]; 109% in test [12]. Besides, the Activity in [13] stood at 79%; in [14] it was 99%; in test [15] it was 72%; in [16], 101%.

Regarding `COc1ccc2[nH]cc(/C=C3\C(=O)Nc4ccc(S(N)(=O)=O)cc43)c2c1`, the Activity was 101% in [1]; 88% in test [2]; 96% in [3]; 98% in test [4]; 85% in test [5]; 72% in test [6]. In addition, the Activity came out at 103% in test [7]; 101% in test [8]; 104% in test [9]; 49% in test [10]; 114% in [11]; 124% in test [12]. For the same compound, the Activity in test [13] was 97%; in [14], 98%; in test [15], 67%; in [16], 115%.
